From ChEMBL document CHEMBL1212699, “Chemical approaches to understanding O-GlcNAc glycosylation in the brain” (Nat Chem Biol, 2008)

Assay: Inhibition of beta-N-acetylglucosaminidase

- Ki: 4.6 pM
Structure (SMILES): CC(C)C(=O)N[C@H]1c2nc(CCc3ccccc3)cn2[C@H](CO)[C@@H](O)[C@@H]1O
